Assay results from patent publication US9428492B2, “Secondary alcohol substituted triazoles as PDE10 inhibitors” (Merck Sharp & Dohme Corp., priority 2012, dated 2016).
Read-outs that look alike come from different tables or passages of the source.

What was measured:
CYP2C9 = CYP2C9 (Homo sapiens (Human), UniProt P11712); experiment: reversible inhibition of CYP2C9; assay type: in vitro ADME
CYP3A4 = CYP3A4 (Homo sapiens (Human), UniProt P08684); experiment: time-dependent inhibition (TDI) of CYP3A4; assay type: in vitro ADME; settings: for time-dependent inhibition (TDI) of the CYP3A4 enzyme: result in words
human PDE10A2 = human PDE10A2 (Homo sapiens (Human), UniProt Q9Y233); experiment: PDE10 fluorescence polarization (IMAP FP) inhibition assay; assay type: biochemical
Procedure: The activity of the compounds in accordance with the present invention as PDE10 inhibitors may be readily determined without undue experimentation using a fluorescence polarization (FP) methodology that is well known in the art (Huang, W., et al., J. Biomol Screen, 2002, 7: 215).
In a typical experiment the PDE10 inhibitory activity of the compounds of the present invention was determined in accordance with the following experimental method. PDE10A2 was amplified from human fetal brain cDNA (Clontech, Mountain View, Calif.) using a forward primer corresponding to nucleotides 56-77 of human PDE10A2 (Accession No. AF127480, Genbank Identifier 4894716), containing a Kozak consensus sequence, and a reverse primer corresponding to nucleotides 2406-2413 of human PDE10A2 (Accession No. AF127480, Genbank Identifier 4894716). Amplification with Easy-A polymerase (Stratagene, La Jolla, Calif.) was 95° C. for 2 minutes followed by thirty three cycles of 95° C. for 40 seconds, 55° C. for 30 seconds, and 72° C. for 2 minutes 48 seconds. Final extension was 72° C. for 7 minutes. The PCR product was TA cloned into pcDNA3.2-TOPO (Invitrogen, Carlsbad, Calif.) according to standard protocol. AD293 cells with 70-80% confluency were transiently transfected with human PDE10A2/pcDNA3.2-TOPO using Lipofectamine 2000 according to manufacturer specifications (Invitrogen, Carlsbad, Calif.). Cells were harvested 48 hours post-transfection and lysed by sonication (setting 3, 10×5 sec pulses) in a buffer containing 20 mM HEPES, 1 mM EDTA and protease inhibitor cocktail (Roche). Lysate was collected by centrifugation at 75,000×g for 20 minutes. Supernatant containing the cytoplasmic fraction was used for evaluation of PDE10A2 activity. The fluorescence polarization assay for cyclic nucleotide phosphodiesterases was performed using an IMAP® FP kit supplied by Molecular Devices, Sunnyvale, Calif. (product # R8139). IMAP® technology has been applied previously to phosphodiesterase assays (Huang, W., et al., J. Biomol Screen, 2002, 7: 215). Assays were performed at room temperature in 384-well microtiter plates with an incubation volume of 20.2 μL. Solutions of test compounds were prepared in DMSO and serially diluted with DMSO to yield 8 μL of each of 10 solutions differing by 3-fold in concentration, at 32 serial dilutions per plate. […] 0% of inhibition is determined by using DMSO (1% final concentrations).
A Labcyte Echo 555 (Labcyte, Sunnyvale, Calif.) is used to dispense 200 nL from each well of the titration plate to the 384 well assay plate. A solution of enzyme (1/1600 dilution from aliquots; sufficient to produce 20% substrate conversion) and a separate solution of FAM-labeled cAMP PDE from Molecular Devices (product # R7506), at a final concentration of 50 nM are made in the assay buffer (10 mM Tris HCl, pH 7.2, 10 mM MgCl2, 0.05% NaN3 0.01% Tween-20, and 1 mM DTT). The enzyme and the substrate are then added to the assay plates in two consecutive additions of 10 μL, and then shaken to mix. The reaction is allowed to proceed at room temperature for 30 minutes. […] The enzymatic reaction is stopped by addition of 60 μL of the binding solution to each well of the assay plates and the plates are sealed and shaken for 10 seconds. The plate was incubated at room temperature for at least one hour prior to determining the fluorescence polarization (FP). The parallel and perpendicular fluorescence of each well of the plate was measured using a Perkin Elmer EnVision™ plate reader (Waltham, Mass.).
Fluorescence polarization (mP) was calculated from the parallel (S) and perpendicular (P) fluorescence of each sample well and the analogous values for the median control well, containing only substrate (So and Po), using the following equation: Polarization (mP)=1000*(S/So−P/Po)/(S/So+P/Po).
Dose-inhibition profiles for each compound were characterized by fitting the mP data to a four-parameter equation given below.

[1] = comparison table with Compounds A, B, C, read-out: PDE10 Ki

human PDE10A2, sequence (Q9Y233 267-1055): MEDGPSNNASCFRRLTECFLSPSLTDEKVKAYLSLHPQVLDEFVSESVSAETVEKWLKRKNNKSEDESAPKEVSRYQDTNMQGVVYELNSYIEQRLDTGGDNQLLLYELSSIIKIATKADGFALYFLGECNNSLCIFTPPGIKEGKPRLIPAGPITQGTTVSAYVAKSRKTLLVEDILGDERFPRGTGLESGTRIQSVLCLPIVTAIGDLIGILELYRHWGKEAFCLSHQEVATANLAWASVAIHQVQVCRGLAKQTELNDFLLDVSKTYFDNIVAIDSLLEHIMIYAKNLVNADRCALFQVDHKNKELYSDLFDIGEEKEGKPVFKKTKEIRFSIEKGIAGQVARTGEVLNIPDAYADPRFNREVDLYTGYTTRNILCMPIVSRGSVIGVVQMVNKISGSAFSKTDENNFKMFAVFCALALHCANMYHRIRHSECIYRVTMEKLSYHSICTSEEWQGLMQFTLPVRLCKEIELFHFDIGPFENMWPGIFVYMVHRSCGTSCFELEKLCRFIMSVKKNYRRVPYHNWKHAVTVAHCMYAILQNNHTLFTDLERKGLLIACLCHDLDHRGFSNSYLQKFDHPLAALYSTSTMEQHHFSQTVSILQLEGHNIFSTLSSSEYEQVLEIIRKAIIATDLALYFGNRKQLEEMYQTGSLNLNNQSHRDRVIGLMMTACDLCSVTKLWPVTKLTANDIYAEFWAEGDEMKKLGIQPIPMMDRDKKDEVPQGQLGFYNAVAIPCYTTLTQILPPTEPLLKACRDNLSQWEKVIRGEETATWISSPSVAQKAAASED
CYP3A4, sequence (P08684 whole entry): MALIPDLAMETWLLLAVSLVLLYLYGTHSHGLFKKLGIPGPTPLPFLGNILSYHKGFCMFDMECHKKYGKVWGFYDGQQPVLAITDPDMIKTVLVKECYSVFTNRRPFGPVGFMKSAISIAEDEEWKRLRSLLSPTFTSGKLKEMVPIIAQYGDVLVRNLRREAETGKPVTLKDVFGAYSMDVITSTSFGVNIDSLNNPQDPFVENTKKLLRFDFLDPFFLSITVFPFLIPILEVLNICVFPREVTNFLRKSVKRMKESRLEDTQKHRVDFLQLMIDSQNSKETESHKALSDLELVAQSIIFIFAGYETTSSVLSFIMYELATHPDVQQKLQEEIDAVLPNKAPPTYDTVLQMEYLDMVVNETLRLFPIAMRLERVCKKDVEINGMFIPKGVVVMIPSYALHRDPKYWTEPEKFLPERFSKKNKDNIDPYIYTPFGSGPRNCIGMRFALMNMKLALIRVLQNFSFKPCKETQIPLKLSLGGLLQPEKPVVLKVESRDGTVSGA
CYP2C9, sequence (P11712 whole entry): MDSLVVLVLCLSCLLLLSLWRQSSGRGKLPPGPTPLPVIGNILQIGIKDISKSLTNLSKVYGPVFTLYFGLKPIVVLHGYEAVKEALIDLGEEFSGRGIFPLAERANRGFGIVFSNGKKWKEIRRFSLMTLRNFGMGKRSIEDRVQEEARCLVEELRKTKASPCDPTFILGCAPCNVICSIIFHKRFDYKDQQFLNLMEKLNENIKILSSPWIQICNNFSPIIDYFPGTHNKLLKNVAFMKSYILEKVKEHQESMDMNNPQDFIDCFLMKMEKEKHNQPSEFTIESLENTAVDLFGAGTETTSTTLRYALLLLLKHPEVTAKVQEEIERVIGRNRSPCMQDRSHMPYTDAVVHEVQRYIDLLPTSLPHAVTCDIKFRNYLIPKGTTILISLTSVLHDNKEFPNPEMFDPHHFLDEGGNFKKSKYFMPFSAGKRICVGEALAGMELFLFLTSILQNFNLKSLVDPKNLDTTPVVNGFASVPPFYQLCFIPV

Row | IC50 (CYP2C9) [nM] | TDI CYP3A4 shift ratio (CYP3A4) | time-dependent inhibition (TDI) of the CYP3A4 enzyme (CYP3A4) | Ki (human PDE10A2; [1]) [nM] | Ki (human PDE10A2; read-out: PDE10a Ki) [nM] | SMILES
1 | > 50000 | 1 | do not exhibit TDI of CYP3A4 | 0.74 | 0.74 | Cc1nc([C@@H]2C[C@H]2c2nc3ccccc3n2C)cc(-n2nc(C)nc2[C@H](C)O)n1 [Example 13, (S)-1-(3-methyl-1-(2-methyl-6-((1R,2R)-2-(1-methyl-1H-benzo[d]imidazol-2-yl)cyclopropyl)pyrimidin-4-yl)-1H-1,2,4-triazol-5-yl)ethanol]
2 | > 50000 | 1 | do not exhibit TDI of CYP3A4 | 1.1 | 1.1 | Cc1nc([C@@H]2C[C@H]2c2nc3ccccc3n2C)cc(-n2nc(C)nc2[C@@H](C)O)n1 [Example 14, (R)-1-(3-methyl-1-(2-methyl-6-((1R,2R)-2-(1-methyl-1H-benzo[d]imidazol-2-yl)cyclopropyl)pyrimidin-4-yl)-1H-1,2,4-triazol-5-yl)ethanol]
